Measured values taken from patent publication US11247965B2 (VenatoRx Pharmaceuticals, Inc., priority 2017, dated 2022).

What was measured:
[1] = tested on: HBV replication in HepAD38 cells; assay: Anti-HBV activity in HepAD38 cells, extracellular HBV DNA by QPCR; assay type: cell-based, HBV (genotype D, serotype ayw); conditions: Hepatitis B virus, HePAD38, 168 h, read-out: Anti-HBV EC50, HepAD38 cells, extracellular HBV DNA by QPCR, 7 days of incubation
Procedure, shortened: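 Seven-day compound exposure (30 μM down to 10 nM, half-log steps) after tetracycline withdrawal induced HBV replication in HepAD38 cells. Extracellular viral DNA measured by QPCR (copies/mL via standard curve), normalised to DMSO wells; EC50 from 4-parameter non-linear regression.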

[2] = In vitro cytotoxicity, MTT cell viability assay in HepG2 cells; assay type: cell-based; conditions: human, Cytotoxicity CC50
Procedure, shortened: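 HepG2 seeded overnight, then 7-day compound exposure (30 μM–1.0 nM, half-log steps), 37 °C. MTT 3-4 h, DMSO solubilization, A492. % of vehicle → CC50, 4-PL fit.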

Compound | EC50 [1] | CC50 at 7 days [2]
C[C@H](NC(=O)C(F)(F)c1c(C(=O)Nc2ccc(F)c(Cl)c2)ccn1C)C(F)(F)F [Example 141] | 5 to 30 µM | > 30 µM
CC[C@@H](C)NC(=O)C(F)(F)c1cc(C(=O)Nc2ccc(F)c(C)c2)cn1C [Example 109, (R)-5-(2-(sec-butylamino)-1,1-difluoro-2-oxoethyl)-N-(4-fluoro-3-methylphenyl)-1-methyl-1H-pyrrole-3-carboxamide] | < 5 µM | > 30 µM
Cc1cc(NC(=O)c2ccc(F)c(C(F)(F)C(=O)N3[C@@H]4CC[C@H]3C[C@H](N)C4)c2)ccc1F [Example 228, 3-(2-((1R,3s,5S)-3-amino-8-azabicyclo[3.2.1]octan-8-yl)-1,1-difluoro-2-oxoethyl)-4-fluoro-N-(4-fluoro-3-methylphenyl)benzamide] | < 5 µM | 5 to 30 µM
O=C(Nc1ccc(F)c(F)c1)c1ccc(F)c(C(F)(F)C(=O)N2CCC(CO)CC2)c1 [Example 48, 3-(1,1-difluoro-2-(4-(hydroxymethyl)piperidin-1-yl)-2-oxoethyl)-N-(3,4-difluorophenyl)-4-fluorobenzamide] | < 5 µM | 5 to 30 µM
Cc1cc(NC(=O)c2cccc(C(F)(F)C(=O)N3CCC(O)CC3)c2Cl)ccc1F [Example 168, 2-chloro-3-(1,1-difluoro-2-(4-hydroxypiperidin-1-yl)-2-oxoethyl)-N-(4-fluoro-3-methylphenyl)benzamide] | < 5 µM | 5 to 30 µM
Cc1cc(NC(=O)c2ccc(F)c(C(F)(F)C(=O)N3CCc4nc(N)sc4C3)c2)ccc1F [Example 242, 3-(2-(2-amino-6,7-dihydrothiazolo[5,4-c]pyridin-5(4H)-yl)-1,1-difluoro-2-oxoethyl)-4-fluoro-N-(4-fluoro-3-methylphenyl)benzamide] | < 5 µM | 5 to 30 µM
Cc1cc(NC(=O)c2cccc(C(F)(F)C(=O)N3[C@@H]4CC[C@H]3C[C@H](O)C4)c2F)ccc1F [Example 207, 3-(1,1-difluoro-2-((1R,3s,5S)-3-hydroxy-8-azabicyclo[3.2.1]octan-8-yl)-2-oxoethyl)-2-fluoro-N-(4-fluoro-3-methylphenyl)benzamide] | < 5 µM | 5 to 30 µM
Cc1cc(NC(=O)c2ccc(F)c(C(F)(F)C(=O)N3CCN4C(=O)NCC4C3)c2)ccc1F (centres unmarked) [Example 264, 3-(1,1-difluoro-2-oxo-2-(3-oxohexahydroimidazo[1,5-a]pyrazin-7(1H)-yl)ethyl)-4-fluoro-N-(4-fluoro-3-methylphenyl)benzamide] | < 5 µM | > 30 µM
O=C(Nc1ccc(F)c(F)c1)c1ccc(F)c(C(F)(F)C(=O)N2CC[C@H](O)C2)c1 [Example 12, (S)-3-(1,1-difluoro-2-(3-hydroxypyrrolidin-1-yl)-2-oxoethyl)-N-(3,4-difluorophenyl)-4-fluorobenzamide] | 5 to 30 µM | 5 to 30 µM
Cc1cc(NC(=O)c2ccc(Cl)c(C(F)(F)C(=O)N3CC[C@H](O)[C@H](O)C3)c2)ccc1F [Example 58, 4-chloro-3-(2-((3R,4S)-3,4-dihydroxypiperidin-1-yl)-1,1-difluoro-2-oxoethyl)-N-(4-fluoro-3-methylphenyl)benzamide] | < 5 µM | > 30 µM
O=C(Nc1cc(F)c(F)c(F)c1)c1ccc(Cl)c(C(F)(F)C(=O)N2C3CC[C@@H]2C[C@@H](O)C3)c1 [Example 247, 4-chloro-3-(1,1-difluoro-2-((1R,3s,5S)-3-hydroxy-8-azabicyclo[3.2.1]octan-8-yl)-2-oxoethyl)-N-(3,4,5-trifluorophenyl)benzamide] | 5 to 30 µM | 5 to 30 µM
Cc1cc(NC(=O)c2ccc(F)c(C(F)(F)C(=O)N3C4CC[C@@H]3C[C@@H](C(=O)O)C4)c2)ccc1F [Example 259, (1R,3s,5S)-8-(2,2-difluoro-2-(2-fluoro-5-((4-fluoro-3-methylphenyl)carbamoyl)phenyl)acetyl)-8-azabicyclo[3.2.1]octane-3-carboxylic acid] | < 5 µM | > 30 µM
Cn1ccc(C(=O)Nc2ccc(F)c(Cl)c2)c1C(F)(F)C(=O)NC1(C#N)CC1 [Example 147, N-(3-chloro-4-fluorophenyl)-2-(2-((1-cyanocyclopropyl)amino)-1,1-difluoro-2-oxoethyl)-1-methyl-1H-pyrrole-3-carboxamide] | 5 to 30 µM | > 30 µM
Cc1cc(NC(=O)c2cc(C(F)(F)C(=O)NC(C)(C)C)cs2)ccc1F [Example 157, 4-(2-(tert-butylamino)-1,1-difluoro-2-oxoethyl)-N-(4-fluoro-3-methylphenyl)thiophene-2-carboxamide] | 5 to 30 µM | 5 to 30 µM
Cc1cc(NC(=O)c2cn(C)c(C(F)(F)C(=O)NC(C)(C)C)c2C)ccc1F [Example 113, 5-(2-(tert-butylamino)-1,1-difluoro-2-oxoethyl)-N-(4-fluoro-3-methylphenyl)-1,4-dimethyl-1H-pyrrole-3-carboxamide] | < 5 µM | > 30 µM
O=C(Nc1ccc(F)c(F)c1)c1ccc(F)c(C(O)C(=O)N2CCC(O)CC2)c1 (centres unmarked) [Example 120, N-(3,4-difluorophenyl)-4-fluoro-3-(1-hydroxy-2-(4-hydroxypiperidin-1-yl)-2-oxoethyl)benzamide] | > 30 µM | > 30 µM
Cc1cc(NC(=O)c2ccnc(C(F)(F)C(=O)N3C4CC[C@@H]3C[C@@H](C(N)=O)C4)c2)ccc1F [Example 245, (1R,3s,5S)-8-(2,2-difluoro-2-(4-((4-fluoro-3-methylphenyl)carbamoyl)pyridin-2-yl)acetyl)-8-azabicyclo[3.2.1]octane-3-carboxamide] | 5 to 30 µM | > 30 µM
CC(C)n1cc(NC(=O)c2ccc(F)c(C(F)(F)C(=O)N3CCC(O)(CO)CC3)c2)cn1 [Example 186, 3-(1,1-difluoro-2-(4-hydroxy-4-(hydroxymethyl)piperidin-1-yl)-2-oxoethyl)-4-fluoro-N-(1-isopropyl-1H-pyrazol-4-yl)benzamide] | 5 to 30 µM | > 30 µM
O=C(Nc1ccc(F)c(F)c1)c1ccc(F)c(C(F)(F)C(=O)NCC2COCCO2)c1 (centres unmarked) [Example 6, 3-(2-(((1,4-dioxan-2-yl)methyl)amino)-1,1-difluoro-2-oxoethyl)-N-(3,4-difluorophenyl)-4-fluorobenzamide] | 5 to 30 µM | 5 to 30 µM
COC(=O)N1C[C@H]2COC[C@@H](C1)N2C(=O)C(F)(F)c1cc(C(=O)Nc2ccc(F)c(C)c2)ccc1F [Example 239, methyl (1R,5S)-9-(2,2-difluoro-2-(2-fluoro-5-((4-fluoro-3-methylphenyl)carbamoyl)phenyl)acetyl)-3-oxa-7,9-diazabicyclo[3.3.1]nonane-7-carboxylate] | < 5 µM | 5 to 30 µM
CC(=O)Nc1nc2c(s1)CN(C(=O)C(F)(F)c1cc(C(=O)Nc3ccc(F)c(C)c3)ccc1F)CC2 [Example 288, 3-(2-(2-acetamido-6,7-dihydrothiazolo[5,4-c]pyridin-5(4H)-yl)-1,1-difluoro-2-oxoethyl)-4-fluoro-N-(4-fluoro-3-methylphenyl)benzamide] | < 5 µM | 5 to 30 µM
CC(C)n1cc(NC(=O)c2ccc(F)c(C(F)(F)C(=O)N3CCC(O)CC3)c2)cn1 [Example 80, 3-(1,1-difluoro-2-(4-hydroxypiperidin-1-yl)-2-oxoethyl)-4-fluoro-N-(1-isopropyl-1H-pyrazol-4-yl)benzamide] | > 30 µM | > 30 µM
